Measurements from patent publication US20230146395A1, “Substituted Pyrimidines and Uses Thereof” (Verge Analytics, Inc., priority 2020, published 2023).
Counter-ions that a name gives are not always drawn.

Target: T1, Full length human recombinant PIKFYVE (Homo sapiens, UniProt Q9Y2I7)
T1 construct: Full length human recombinant PIKFYVE; purchased Carna Biosciences (Kobe, Japan); host or cells: baculovirus expression system
Experiment: Inhibition of PIKfyve (microfluidic electrophoresis kinase assay, PI3P/PS substrate)
Type: biochemical
Conditions: 12 concentrations
Summary of the method: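 GST-tagged full-length human PIKFYVE (baculovirus; 2 nM) with fluorescent PI3P/PS (1 μM PI3P) and […] in pH 7.5 HEPES with Mg2+/Mn2+, 1% DMSO, 3 h at room temperature. PI(3,5)P product/substrate ratio read by microfluidic electrophoresis; 12-point % inhibition versus no-enzyme and DMSO controls.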

T1 sequence (Q9Y2I7 whole entry): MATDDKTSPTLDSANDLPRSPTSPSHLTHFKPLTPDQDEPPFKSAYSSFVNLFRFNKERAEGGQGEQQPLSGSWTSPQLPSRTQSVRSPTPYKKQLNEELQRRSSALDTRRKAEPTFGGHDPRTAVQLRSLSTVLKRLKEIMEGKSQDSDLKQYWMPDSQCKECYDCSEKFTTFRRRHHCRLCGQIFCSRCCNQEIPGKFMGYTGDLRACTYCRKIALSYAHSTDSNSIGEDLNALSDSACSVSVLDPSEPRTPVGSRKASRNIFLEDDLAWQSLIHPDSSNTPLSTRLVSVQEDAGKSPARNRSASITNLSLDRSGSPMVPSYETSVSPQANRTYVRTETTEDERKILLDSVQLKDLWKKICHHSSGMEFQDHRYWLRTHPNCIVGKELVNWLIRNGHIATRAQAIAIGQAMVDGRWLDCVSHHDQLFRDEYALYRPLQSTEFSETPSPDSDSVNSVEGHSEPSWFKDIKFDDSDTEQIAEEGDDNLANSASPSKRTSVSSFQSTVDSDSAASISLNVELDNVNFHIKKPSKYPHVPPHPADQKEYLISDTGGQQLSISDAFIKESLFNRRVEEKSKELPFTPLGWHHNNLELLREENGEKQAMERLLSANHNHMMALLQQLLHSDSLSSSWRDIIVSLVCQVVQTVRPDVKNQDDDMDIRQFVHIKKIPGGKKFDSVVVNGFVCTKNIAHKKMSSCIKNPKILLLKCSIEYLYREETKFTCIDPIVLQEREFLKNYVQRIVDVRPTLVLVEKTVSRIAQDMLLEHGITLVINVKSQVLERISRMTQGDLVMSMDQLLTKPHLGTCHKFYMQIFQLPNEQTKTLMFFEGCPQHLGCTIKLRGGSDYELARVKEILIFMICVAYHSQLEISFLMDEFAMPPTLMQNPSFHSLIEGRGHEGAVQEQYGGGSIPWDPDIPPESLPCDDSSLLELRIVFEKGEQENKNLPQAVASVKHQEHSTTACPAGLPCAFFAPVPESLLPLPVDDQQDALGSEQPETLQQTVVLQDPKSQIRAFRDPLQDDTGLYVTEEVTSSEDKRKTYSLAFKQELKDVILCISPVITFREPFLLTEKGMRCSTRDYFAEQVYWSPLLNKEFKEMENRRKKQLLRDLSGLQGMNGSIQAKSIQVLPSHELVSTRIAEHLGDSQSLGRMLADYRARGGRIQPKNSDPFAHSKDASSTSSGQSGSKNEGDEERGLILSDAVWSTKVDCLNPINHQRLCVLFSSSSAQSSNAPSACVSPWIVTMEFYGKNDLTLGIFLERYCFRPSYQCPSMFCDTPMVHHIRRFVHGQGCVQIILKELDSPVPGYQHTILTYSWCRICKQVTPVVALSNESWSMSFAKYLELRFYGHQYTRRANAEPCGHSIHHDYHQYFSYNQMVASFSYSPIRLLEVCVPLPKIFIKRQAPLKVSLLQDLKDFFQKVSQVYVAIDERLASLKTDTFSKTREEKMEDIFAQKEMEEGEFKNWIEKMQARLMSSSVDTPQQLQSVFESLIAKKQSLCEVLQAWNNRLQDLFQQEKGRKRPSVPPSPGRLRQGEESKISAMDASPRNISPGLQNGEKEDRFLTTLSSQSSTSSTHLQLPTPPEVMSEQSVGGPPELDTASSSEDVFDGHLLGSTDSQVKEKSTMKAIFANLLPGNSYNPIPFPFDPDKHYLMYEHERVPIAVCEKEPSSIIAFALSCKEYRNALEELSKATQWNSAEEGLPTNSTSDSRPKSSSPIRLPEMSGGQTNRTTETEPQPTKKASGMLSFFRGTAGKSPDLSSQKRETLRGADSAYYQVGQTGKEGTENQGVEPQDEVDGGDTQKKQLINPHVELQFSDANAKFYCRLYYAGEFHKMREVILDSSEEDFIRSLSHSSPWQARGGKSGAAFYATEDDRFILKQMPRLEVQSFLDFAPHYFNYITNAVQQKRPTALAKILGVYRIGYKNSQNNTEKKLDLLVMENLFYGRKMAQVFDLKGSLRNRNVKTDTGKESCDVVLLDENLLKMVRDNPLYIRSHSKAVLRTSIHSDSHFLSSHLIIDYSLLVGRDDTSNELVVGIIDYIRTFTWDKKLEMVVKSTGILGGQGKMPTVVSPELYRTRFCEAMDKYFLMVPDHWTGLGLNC

Work on `c1ccc(-c2cc(Nc3nc(N4CCOCC4)c4oc(-c5ccncc5)cc4n3)[nH]n2)cc1` [Compound 1, 4-morpholino-N-(3-phenyl-1H-pyrazol-5-yl)-6-(pyridin-4-yl)furo[3,2-d]pyrimidin-2-amine hydrochloride] yielded an IC50 of 1.4 nM.
